According to patent US20250361217A1, “FATTY ACID COMPOUNDS” (University of Pittsburgh - Of the Commonwealth System of …, priority 2022, published 2025):

What was measured:
[1] = test system: HFD model in C57BL/6J mice; assay: Liver histology (H&E) scores of steatosis, ballooning, inflammation in HFD mice; format: in vivo; conditions: 50 mg/kg
Description: Male C57BL/6J mice were purchased from Jackson Laboratory (Bar Harbor, ME, USA). Mice were acclimated for a week before being randomized to receive either a low-fat diet (LFD) or a high-fat diet (HFD) purchased from Research Diets (New Brunswick, NJ, USA). Obesity was induced by the HFD (D12492, with 60% of the adjusted calories derived from fat) for 16 weeks beginning at age of 8 weeks. Age-matched controls were maintained on a LFD (D12450J, matching the sucrose level of D12492). While maintaining the diet, mice under HFD were divided into 4 groups (n=8 per group) and were treated every 2 days by oral gavage for 7 weeks with 100 μl of 11D3 (50 mg/kg), 11U3 (50 mg/kg), or 11U3-2M (50 mg/kg) formulated in a solution of 2:1 of polyethylene glycol (Fisher Scientific, PEG400 #p167-1) and saline, containing 1.5% of octanoic acid (TCI, #00027). Control groups received 100 μl of PEG400/saline/octanoic acid as the vehicle (Veh). LFD mice were divided into 2 groups (n=8 per group) and treated with veh or 11D3 (50 mg/kg) to detect any effect of natural FuFA in LFD. […] Food intake, water consumption, and mouse weight were monitored every week. […]
The fixed Liver tissues embedded in paraffin were cut into 4 μm sections. […] Quantifications and scores of liver steatosis, ballooning, and inflammation were performed blindly by a pathologist based on 3 parameters—steatosis, inflammation, hepatocyte degeneration.

[2] = test system: HFD model in C57BL/6J mice; assay: HPLC-MS analysis of plasma cholesterol, cholesterol-ester and triglycerides in HFD mice; format: in vivo; conditions: 50 mg/kg
Description: Male C57BL/6J mice were purchased from Jackson Laboratory (Bar Harbor, ME, USA). Mice were acclimated for a week before being randomized to receive either a low-fat diet (LFD) or a high-fat diet (HFD) purchased from Research Diets (New Brunswick, NJ, USA). Obesity was induced by the HFD (D12492, with 60% of the adjusted calories derived from fat) for 16 weeks beginning at age of 8 weeks. Age-matched controls were maintained on a LFD (D12450J, matching the sucrose level of D12492). While maintaining the diet, mice under HFD were divided into 4 groups (n=8 per group) and were treated every 2 days by oral gavage for 7 weeks with 100 μl of 11D3 (50 mg/kg), 11U3 (50 mg/kg), or 11U3-2M (50 mg/kg) formulated in a solution of 2:1 of polyethylene glycol (Fisher Scientific, PEG400 #p167-1) and saline, containing 1.5% of octanoic acid (TCI, #00027). Control groups received 100 μl of PEG400/saline/octanoic acid as the vehicle (Veh). LFD mice were divided into 2 groups (n=8 per group) and treated with veh or 11D3 (50 mg/kg) to detect any effect of natural FuFA in LFD. Mice were grouped to start at the same weight mean before starting the treatment. During and before gavage treatment, mice were fed ad libitum and given free access to water. Food intake, water consumption, and mouse weight were monitored every week. At 20 weeks (4 weeks of treatment), a glucose tolerance test (GTT) was performed on all cohorts. After 2 weeks of recovery (22 weeks), a whole-body composition was performed using EchoMRI™-100H. At the end of the 23 weeks study, mice were euthanized with isoflurane followed by laparotomy. The blood was collected, and mice were perfused using 0.9% NaCl. Organs were harvested and snap-frozen in liquid nitrogen gas and stored at −80° C. for further analysis. […]
Plasma TG were analyzed by HPLC-HR-MS/MS using a C8 Luna column (2×150 mm, 5 μm, Phenomenex) with a flow rate of […] and mobile phases of acetonitrile/water (9:1, v/v) 0.1% ammonium acetate (solvent A) and isopropanol/acetonitrile 0.1% ammonium acetate (7:3, v/v) (solvent B). […]

LncRNA GM15441 = assay: Fluorescence RNA in-situ hybridization for GM15441; format: in vivo, mice; conditions: livers of HFD-treated groups
Protocol: Fluorescence RNA in-situ hybridization was performed on tissue sections using LNA ISH Optimization Kits (Qiagen, #339459) according to manufacturer's instructions. Briefly, the sectioning slides were deparaffinized and digested by proteinase K approach for 15 min at 37° C. U6, scrambled RNA, and GM15441 (LCD0173184) probes were hybridized at final concentration of 1 nM, 40 nM and 40 nM, respectively, followed by stringent washes of serial diluted SSC (Sigma, #S6639-1 L). After 30 min blocking, the slides were incubated with anti-DIG-POD (Roche, #11207733910) at 1:400 dilution for 60 min at RT according to manufacturer's instructions. TSA-plus Cyanine 3 (Akoya Bioscience, #NEL744001KT) substrate was added to the sections and incubated twice (5 min per incubation) to amplify the fluorescence signal. NucBlue Live ReadyProbes Reagent was applied to the slides at last to facilitate cell nuclei staining. Images were acquired on a fluorescent microscope (Leica, DMi8) using the Ocular Advanced Scientific Camera Control software (Digital Optics Limited).

[3] = FuFA-CoA detection in liver by mass spectrometry; format: in vivo; conditions: livers of FuFA-treated HFD mice
Protocol: Liver powder (50 mg) was used and dissolved in plastic Eppendorf with […] of milli-Q purified water and vortexed well. Then, 200 μl of ACN containing 400 nM n-Heptadecanoyl coenzyme A lithium salt as internal standard (C17-CoA standard, NuCheck) was added, vortexed thoroughly, and centrifuged for 4 min at 10000 g at 4° C. For protein precipitation, the supernatant was transferred to a new tube and 20 μl was diluted with 180 μl of ACN/water (4:1 ratio) in clean mass spectrometry vials for analysis of CoA's.
FuFA-CoA in liver and primary hepatocytes were detected with an API 5000™ mass spectrometer after chromatographic separation using a 150×2 mm Luna® 5 μm C8 100 C8 Å LC column (OOF-4040-BO) with 5% solvent B (ACN, 0.1% ammonium) at a flow rate of 0.35 ml/min using a system solvent started in 5% solvent B (ACN, 0.1% ammonium hydroxide) and 95% of solvent A(water+0.1% ammonium hydroxide) for 30 seconds, followed by an increase from 5-65% gradient of solvent B over 6 min, followed by re equilibrate condition. Quantitation of analyte and internal standard peak areas was determined using the Quantitation Wizard in Sciex's Analyst® Software.

- FuFA-CoA conjugate in liver (ratio to C17:0-CoA) [3]: significantly elevated
SMILES: CCCc1ccc(CCCCCCCCCC(C)(C)C(=O)O)o1 [11U3-2M, 2,2-Dimethyl-11-(5-propylfuran-2-yl)undecanoic acid]
- ballooning degeneration of hepatocytes vs HFD+veh [1]: significantly alleviated
- liver steatosis vs HFD+veh [1]: significantly alleviated
- plasma TC compared to HFD+veh [2]: reduction
- plasma TG reduced vs HFD+veh [2]: 16%
- plasma total cholesterol-ester (TCE) reduced vs HFD+veh [2]: 33%
- GM15441 in-situ hybridization signal (LncRNA GM15441): only detected in the nucleus of cells from 11U3-2M treated livers
